Data: US10087172B2, “Compounds and their methods of use” (AGIOS PHARMACEUTICALS, INC, priority 2012, dated 2018)

Biological target: T1, glutaminase (GAC) (Homo sapiens, UniProt O94925)
T1 sequence (O94925 55-598 isoform O94925-3 limits assumed): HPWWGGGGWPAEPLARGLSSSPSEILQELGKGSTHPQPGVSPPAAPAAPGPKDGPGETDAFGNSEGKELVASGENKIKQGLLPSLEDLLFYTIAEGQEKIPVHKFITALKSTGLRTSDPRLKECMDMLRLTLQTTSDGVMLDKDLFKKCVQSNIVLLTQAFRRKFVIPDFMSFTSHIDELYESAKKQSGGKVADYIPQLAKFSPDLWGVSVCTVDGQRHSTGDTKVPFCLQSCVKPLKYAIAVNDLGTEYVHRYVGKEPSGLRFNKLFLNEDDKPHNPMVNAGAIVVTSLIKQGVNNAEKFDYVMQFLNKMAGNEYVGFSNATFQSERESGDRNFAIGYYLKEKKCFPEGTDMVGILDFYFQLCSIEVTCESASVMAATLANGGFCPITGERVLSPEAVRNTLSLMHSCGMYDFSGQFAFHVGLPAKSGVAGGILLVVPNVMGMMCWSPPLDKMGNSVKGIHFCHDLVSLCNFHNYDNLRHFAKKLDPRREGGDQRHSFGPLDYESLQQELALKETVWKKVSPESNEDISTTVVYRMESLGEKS
Test: Glutaminase (GAC) coupled endpoint enzymatic assay (glutamate dehydrogenase/diaphorase/resazurin, Ex544/Em590)
Assay type: biochemical
Details: inhibition of glutaminase, tested in an assay of Example A or Example B; class symbols A-E
Source text: In certain embodiments, exemplary compounds of Formula I include the compounds described in Table 1 and in the Examples. A compound described herein may be tested for its ability to inhibit glutaminase, e.g., by an assay as described in the Examples. For simplicity, the inhibition activity of these compounds is represented as an IC50 tested in an assay of Example A or Example B in Table 1. […] “N/A” refers to compounds wherein the IC50 is unavailable.
In this example, the enzymatic activity of glutaminase is measured through a coupled endpoint assay. Glutamine and phosphate are supplied to GAC at a concentration equal to Km and AC50, respectively, and GAC concentration is adjusted to give a linear reaction for 60 minutes. The glutamate produced is converted to 2-OG by a kinetic excess of glutamate dehydrogenase. This second step is configured for 2× Km for NAD, since excess NAD is inhibitory. However, a kinetic excess of the third coupling enzyme, diaphorase, recycles NAD from NADH to keep the NAD concentration constant during the timecourse of the assay. Diaphorase, also supplied in kinetic excess, oxidizes NADH produced by GDH back to NAD with the concomitant reduction of rezasurin to the highly fluorescent resorufin. Resorufin in measured after the assay is stopped with SDS by Ex544/Em590. A reduction in the signal indicates inhibition of some component of the coupled enzyme system. Prospective hits are counterscreened against GDH/diaphorase alone to remove hits to the coupling enzyme system in a second assay.
2. Buffers 2× Buffer (300 mM NaCl, 100 mM HEPES pH 8.5, 0.1% BSA, 0.5 mM EDTA, 100 mM sodium phosphate pH 8.5) 5× Substrate Mix (1× Buffer final concentration, with 13 mM glutamine, 100 μM resazurin, 50 μg/ml diaphorase) 1.2× Enzyme Mix (1× Buffer final concentration, with 0.875 μg/ml GAC, 1.56 mM NAD, 6.25 units/ml GDH) Stop Mix (6% SDS in ddH2O) Reaction Procedure 1. Add 1 μl compound in 100% DMSO 2. Add 40 μl of Enzyme Mix and incubate for 60 minute at room temperature 3. Add 10 μl of Substrate Mix to start reaction 4. Stop reaction with 25 μl of 6% SDS and read Ex544 Em 590

| SMILES | IC50 [nM] |
| --- | --- |
| CCCC(=O)Nc1nnc([C@H]2CCC[C@H](c3nnc(NC(=O)CCC)s3)C2)s1 [Compound 37, N,N′-(5,5′-((1S,3S)-cyclohexane-1,3-diyl)bis(1,3,4-thiadiazole-5,2-diyl))dibutyramide] | 100 to 500 |
| Cc1ccccc1CC(=O)Nc1nnc([C@H]2CCC[C@H](c3nnc(NC(=O)Cc4ccccc4C)s3)C2)s1 [Compound 83, N,N′-(5,5′-((1S,3S)-cyclohexane-1,3-diyl)bis(1,3,4-thiadiazole-5,2-diyl))bis(2-o-tolylacetamide)] | 100 to 500 |
| O=C(Nc1nnc([C@H]2CCC[C@H](c3nnc(NC(=O)[C@H](O)c4ccccc4)s3)C2)s1)[C@H](O)c1ccccc1 [Compound 370, (2R,2′R)—N,N′-(5,5′-((1S,3S)-cyclohexane-1,3-diyl)bis(1,3,4-thiadiazole-5,2-diyl))bis(2-hydroxy-2-phenylacetamide)] | < 100 |
| O=C(Cc1cccnc1)Nc1nnc([C@H]2CCC[C@H](c3nnc(NC(=O)Cc4cccnc4)s3)C2)s1 [Compound 28, N,N′-(5,5′-((1S,3S)-cyclohexane-1,3-diyl)bis(1,3,4-thiadiazole-5,2-diyl))bis(2-(pyridin-3-yl)acetamide)] | < 100 |
| O=C(Cc1ccc(Cl)cc1)Nc1nnc([C@H]2CCC[C@H](c3nnc(NC(=O)Cc4ccc(Cl)cc4)s3)C2)s1 [Compound 50] | 100 to 500 |
| CN(C)c1cccc(CC(=O)Nc2nnc([C@H]3CCC[C@H](c4nnc(NC(=O)Cc5cccc(N(C)C)c5)s4)C3)s2)c1 [Compound 35, N,N′-(5,5′-((1S,3S)-cyclohexane-1,3-diyl)bis(1,3,4-thiadiazole-5,2-diyl))bis(2-(3-(dimethylamino)phenyl)acetamide)] | < 100 |
| O=C(Nc1nnc([C@H]2CCC[C@H](c3nnc(NC(=O)C4CCOC4)s3)C2)s1)C1CCOC1 (stereo partly drawn) [Compound 48, N,N′-(5,5′-((1S,3S)-cyclohexane-1,3-diyl)bis(1,3,4-thiadiazole-5,2-diyl))bis(tetrahydrofuran-3-carboxamide)] | 500 to 1000 |
| CCC(=O)Nc1nnc([C@H]2CCC[C@H](c3nnc(NC(=O)CC)s3)C2)s1 [Compound 40, N,N′-(5,5′-((1S,3S)-cyclohexane-1,3-diyl)bis(1,3,4-thiadiazole-5,2-diyl))dipropionamide] | 100 to 500 |
| COc1cccc(CC(=O)Nc2nnc([C@H]3CCC[C@H](c4nnc(NC(=O)Cc5cccc(OC)c5OC)s4)C3)s2)c1OC [Compound 112, N,N′-(5,5′-((1S,3S)-cyclohexane-1,3-diyl)bis(1,3,4-thiadiazole-5,2-diyl))bis(2-(2,3-dimethoxyphenyl)acetamide)] | < 100 |
| O=C(Cc1cccc(OC(F)(F)F)c1)Nc1nnc([C@H]2CCC[C@H](c3nnc(NC(=O)[C@@H](O)c4ccccc4)s3)C2)s1 [Compound 372, (S)-2-hydroxy-2-phenyl-N-(5-((1S,3S)-3-(5-(2-(3-(trifluoromethoxy)phenyl)acetamido)-1,3,4-thiadiazol-2-yl)cyclohexyl)-1,3,4-thiadiazol-2-yl)acetamide] | < 100 |
| N#Cc1cccc(CC(=O)Nc2nnc([C@H]3CCC[C@H](c4nnc(NC(=O)Cc5cccc(OC(F)(F)F)c5)s4)C3)s2)n1 [Compound 375, 2-(6-cyanopyridin-2-yl)-N-(5-((1S,3S)-3-(5-(2-(3-(trifluoromethoxy)phenyl)acetamido)-1,3,4-thiadiazol-2-yl)cyclohexyl)-1,3,4-thiadiazol-2-yl)acetamide] | < 100 |
| O=C(Cc1cccc(OC(F)(F)F)c1)Nc1nnc([C@H]2CCC[C@H](c3nnc(NC(=O)C(CO)c4ccccc4)s3)C2)s1 (stereo partly drawn) [Compound 389, 3-hydroxy-2-phenyl-N-(5-((1S,3S)-3-(5-(2-(3-(trifluoromethoxy)phenyl)acetamido)-1,3,4-thiadiazol-2-yl)cyclohexyl)-1,3,4-thiadiazol-2-yl)propanamide] | < 100 |
| O=C(Cc1cccc(OC(F)(F)F)c1)Nc1nnc([C@H]2CCC[C@H](c3nnc(NC(=O)[C@H](O)c4ccccc4)s3)C2)s1 [Compound 365, (R)-2-hydroxy-2-phenyl-N-(5-((1S,3S)-3-(5-(2-(3-(trifluoromethoxy)phenyl)acetamido)-1,3,4-thiadiazol-2-yl)cyclohexyl)-1,3,4-thiadiazol-2-yl)acetamide] | < 100 |
| COc1ccccc1CC(=O)Nc1nnc([C@@H]2CC[C@@H](c3nnc(NC(=O)Cc4ccccc4OC)s3)C2)s1 (stereo in doubt) [Compound 291, N,N′-(5,5′-((1S,3S)-cyclopentane-1,3-diyl)bis(1,3,4-thiadiazole-5,2-diyl))bis(2-(2-methoxyphenyl)acetamide)] | < 100 |
| CC(=O)Nc1cccc(CC(=O)Nc2nnc([C@H]3CCC[C@H](c4nnc(NC(=O)Cc5cccc(NC(C)=O)c5)s4)C3)s2)c1 [Compound 65, N,N′-(5,5′-((1S,3S)-cyclohexane-1,3-diyl)bis(1,3,4-thiadiazole-5,2-diyl))bis(2-(3-acetamidophenyl)acetamide)] | < 100 |
| Cc1cc(CC(=O)Nc2nnc([C@H]3CCC[C@H](c4nnc(NC(=O)Cc5cc(C)no5)s4)C3)s2)on1 [Compound 30, N,N′-(5,5′-((1S,3S)-cyclohexane-1,3-diyl)bis(1,3,4-thiadiazole-5,2-diyl))bis(2-(3-methylisoxazol-5-yl)acetamide)] | < 100 |
| N#Cc1ccc(CC(=O)Nc2nnc([C@H]3CCC[C@H](c4nnc(NC(=O)Cc5ccc(C#N)cn5)s4)C3)s2)nc1 (single isomer, unassigned) [Compound 101] | < 100 |
| N#Cc1cccc(CC(=O)Nc2nnc([C@H]3CCC[C@H](c4nnc(NC(=O)Cc5cccc(C6CCNCC6)c5)s4)C3)s2)c1 [Compound 355] | < 100 |
| O=C(Cc1cc(OC(F)F)ccn1)Nc1nnc([C@H]2CCC[C@H](c3nnc(NC(=O)Cc4cc(OC(F)F)ccn4)s3)C2)s1 [Compound 356, N,N′-(5,5′-((1S,3S)-cyclohexane-1,3-diyl)bis(1,3,4-thiadiazole-5,2-diyl))bis(2-(4-(difluoromethoxy)pyridin-2-yl)acetamide)] | < 100 |
| Nc1cccc(CC(=O)Nc2nnc([C@H]3CCC[C@H](c4nnc(NC(=O)Cc5cccc(N)c5)s4)C3)s2)c1 [Compound 53, N,N′-(5,5′-((1S,3S)-cyclohexane-1,3-diyl)bis(1,3,4-thiadiazole-5,2-diyl))bis(2-(3-aminophenyl)acetamide)] | < 100 |
| O=C(Cc1ccc([N+](=O)[O-])cc1)Nc1nnc([C@H]2CCC[C@H](c3nnc(NC(=O)Cc4ccc([N+](=O)[O-])cc4)s3)C2)s1 [Compound 64, N,N′-(5,5′-((1S,3S)-cyclohexane-1,3-diyl)bis(1,3,4-thiadiazole-5,2-diyl))bis(2-(4-nitrophenyl)acetamide)] | 1000 to 2000 |
| O=C(Cc1cccc(N2CC(F)(F)C2)n1)Nc1nnc([C@H]2CC[C@H](c3nnc(NC(=O)[C@@H](O)c4ccccc4)s3)C2)s1 [Compound 377, (S)—N-(5-((1S,3S)-3-(5-(2-(6-(3,3-difluoroazetidin-1-yl)pyridin-2-yl)acetamido)-1,3,4-thiadiazol-2-yl)cyclopentyl)-1,3,4-thiadiazol-2-yl)-2-hydroxy-2-phenylacetamide] | < 100 |
| O=C(Cc1ccccc1F)Nc1nnc([C@H]2CCC[C@H](c3nnc(NC(=O)Cc4ccccc4F)s3)C2)s1 [Compound 87, N,N′-(5,5′-((1S,3S)-cyclohexane-1,3-diyl)bis(1,3,4-thiadiazole-5,2-diyl))bis(2-(2-fluorophenyl)acetamide)] | < 100 |
| O=C(Cc1cccc(OC(F)(F)F)c1)Nc1nnc([C@H]2CCC[C@H](c3nnc(NC(=O)C(CO)c4ccccc4)s3)C2)s1 (stereo partly shown) [Compound 381] | < 100 |
| N#Cc1cccc(CC(=O)Nc2nnc([C@H]3CCC[C@H](c4nnc(NC(=O)Cc5cccc(CN)c5)s4)C3)s2)c1 [Compound 361] | < 100 |
